Source: ChEMBL document CHEMBL1201862, “PubChem BioAssay data set” (2004)
Values belong to the compound of their own block, whether it stands above or below them. Active and inactive are the calls of the source. Unless noted, the rule behind the calls is not given here.

Columns and labels:
HSP90 = HSP90 (Plasmodium falciparum 3D7, UniProt Q8IL32); format: functional, organism-based
Candida albicans [1] = experiment: resistant Candida growth with fluconazole co-treatment – CaCi-8 strain, Alamar Blue, dry powder, set 3, dose response (AID 488905); format: functional, organism-based
Candida albicans [2] = experiment: Candida growth inhibition combined with fluconazole – CaCi-2 strain, Alamar Blue, dry powder, set 3, dose response (AID 488907); format: functional, organism-based
CAAX prenyl protease 2 [3] = molecular target: T1, CAAX prenyl protease 2 (Saccharomyces cerevisiae S288c, UniProt Q03530); format: biochemical
T1 sequence (Q03530 whole entry): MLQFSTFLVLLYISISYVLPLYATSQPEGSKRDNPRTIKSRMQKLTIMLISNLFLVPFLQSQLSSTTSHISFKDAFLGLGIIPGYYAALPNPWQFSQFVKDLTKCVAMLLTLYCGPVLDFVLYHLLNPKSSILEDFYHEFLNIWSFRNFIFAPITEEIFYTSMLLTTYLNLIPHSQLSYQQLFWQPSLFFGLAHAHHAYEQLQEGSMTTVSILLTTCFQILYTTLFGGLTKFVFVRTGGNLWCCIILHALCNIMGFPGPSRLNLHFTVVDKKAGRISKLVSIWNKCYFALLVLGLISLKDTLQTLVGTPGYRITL

CAAX prenyl protease 2 [4] = molecular target: T1, CAAX prenyl protease 2; experiment: inhibition of Rce1p peptide cleavage – biochemical, plate reader, dry powder retest, dose response (AID 588851)

Chain of HSP90 (Q8IL32 whole entry): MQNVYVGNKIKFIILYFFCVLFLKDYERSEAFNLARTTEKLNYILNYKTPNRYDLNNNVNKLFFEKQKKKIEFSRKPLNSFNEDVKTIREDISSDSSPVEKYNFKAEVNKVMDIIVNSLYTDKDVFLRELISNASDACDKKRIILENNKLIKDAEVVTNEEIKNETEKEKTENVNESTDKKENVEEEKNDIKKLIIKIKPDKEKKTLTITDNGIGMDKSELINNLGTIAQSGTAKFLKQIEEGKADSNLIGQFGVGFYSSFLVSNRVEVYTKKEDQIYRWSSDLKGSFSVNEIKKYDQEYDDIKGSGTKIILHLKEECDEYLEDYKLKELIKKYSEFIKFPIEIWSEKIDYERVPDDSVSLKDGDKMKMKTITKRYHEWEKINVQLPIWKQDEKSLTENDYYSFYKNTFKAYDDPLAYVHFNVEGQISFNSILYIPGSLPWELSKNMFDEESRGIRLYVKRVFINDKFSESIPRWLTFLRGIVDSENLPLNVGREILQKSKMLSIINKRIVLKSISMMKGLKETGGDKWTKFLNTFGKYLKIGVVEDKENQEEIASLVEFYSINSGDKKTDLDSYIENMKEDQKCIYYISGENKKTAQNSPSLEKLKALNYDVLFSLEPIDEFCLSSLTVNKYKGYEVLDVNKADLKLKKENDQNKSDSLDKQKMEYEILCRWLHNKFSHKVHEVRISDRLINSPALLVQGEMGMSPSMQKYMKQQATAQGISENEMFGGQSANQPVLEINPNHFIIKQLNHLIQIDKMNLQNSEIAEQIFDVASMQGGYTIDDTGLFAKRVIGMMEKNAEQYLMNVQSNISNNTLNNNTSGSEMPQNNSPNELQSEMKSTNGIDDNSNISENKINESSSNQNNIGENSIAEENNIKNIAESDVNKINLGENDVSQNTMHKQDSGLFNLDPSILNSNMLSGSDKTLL

AC50 (HSP90): 28.6 µM (active)
Compound: CCCC1CCC(c2ccc(C(=N)NO)cc2)CC1 (stereo not given)

Compound: COc1ccc(C(=O)N2CCN(c3ccccn3)CC2)cc1
AC50 (Candida albicans [1]): 15.4 µM (active)
AC50 (Candida albicans [2]): 0.484 µM (active)

AC50 (CAAX prenyl protease 2 [3]): 0.963 µM (active)
AC50 (CAAX prenyl protease 2 [4]): 16.8 µM (active)
Compound: Cc1cccc(-c2nnc(SCc3ccc(C#N)cc3)n2Cc2ccco2)c1
